Measurements published in US9783521B2, “PDE10 inhibitors and related compositions and methods” (Omeros Corporation, priority 2008, dated 2017).

Legend:
[1] = tested on: C57BL/6 male mice; test: PCP-induced hyperactivity (psychostimulant-induced model of psychosis); type: in vivo
Protocol: Psychostimulant-induced hyperactivity is measured by injecting animals with PCP and monitoring the animals' activity levels in the VersaMax chambers (Accuscan Instruments, Columbus, Ohio) measuring 40×40 cm. Locomotor activity is detected by photobeam breaks as the animal crosses each beam. The animal is placed in the center of the field and left undisturbed for a period of time (20 min to 2 hr) to measure its spontaneous activity in a novel environment. Measurements used to assess locomotor activity include: horizontal activity, total distance traveled, vertical activity (rearing events—animal raises up on hindlimbs), rotation, stereotypy, and distance traveled in the center compared to total distance traveled (center: total distance ratio). The NMDA antagonist PCP induces psychosis-like conditions manifested as hyperactivity and increased stereotypic behavior. Known antipsychotics are able to reverse psychostimulant-induced hyperactivity and increased stereotypy.
C57BL/6 male mice were injected with either compound (10 mg/kg) or vehicle via i.p. Ten minutes later, the mice were injected with PCP (5 mg/kg) via i.p. The mice were placed in the activity chambers 10 minutes after PCP injection and their locomotor activities were monitored by infrared beam breaks for 20 min.
(§1) C57BL/6 male mice were administered either compound or vehicle via oral gavage. Fifteen minutes later, the mice were injected with PCP (5 mg/kg) via the i.p. route. The mice were placed in activity chambers 10 minutes after PCP injection, and their locomotor activity in the horizontal dimension was monitored by infrared beam breaks for 20 min (5 consecutive 4-minute intervals (INT) as indicated).
as §1, with “Twenty-five” for “Fifteen”, “injection” for “injection,”
C57BL/6 male mice were given either compound or vehicle by oral gavage. Twenty-five minutes later they were injected with PCP (5 mg/kg, i.p.). Ten minutes later, the mice were placed in activity chambers, and their locomotor activity in the horizontal dimension was monitored by infrared beam breaks for 20 min (5 consecutive 4-minute intervals (INT) as indicated).
C57BL/6 male mice were co-injected with PCP (5 mg/kg) and either compound or vehicle via the i.p. route. Ten minutes later, the mice were placed in activity chambers and their locomotor activity in the horizontal dimension was monitored by infrared beam breaks for 20 min (5 consecutive 4-minute intervals (INT) as indicated).
as §1, with “oral gavage. Twenty-five minutes later,” for “oral gavage. Fifteen minutes later,”, “placed in the activity chambers” for “placed in activity chambers”, “after PCP injection and their” for “after PCP injection, and their”
C57BL/6 male mice were administered either compound or vehicle via oral gavage. Twenty-five minutes later, the mice were injected with PCP (5 mg/kg) via the i.p. route. The mice were placed in the activity chambers 10 minutes after injection and their locomotor activity in the horizontal dimension was monitored by infrared beam breaks for 20 min (5 consecutive 4-minute intervals as indicated).

[2] = tested on: C57BL/6 male mice; test: Conditioned avoidance response (CAR) model of psychosis; type: in vivo; details: for number of avoidance responses (CAR) vs vehicle: 30 trials; for conditioned avoidance response (CAR) in trained mice as compared to vehicle control: mouse, in vivo
Description: Conditioned avoidance response (CAR) is a behavioral test to evaluate antipsychotic effect of a test compound. […] Each chamber is fitted with metal grid floor that is capable of delivering electric shocks independently. A computer program is used to implement the testing paradigm as well as record the animal's movement between the two chambers through infrared beam sensors. The testing paradigm is as the follows. A mouse is placed into one chamber. A light (conditioned stimulus, CS) comes on. Five seconds later, mild electric shocks (0.4 mA) (unconditioned stimulus, US) are delivered to the chamber where the mouse is located (as detected by infrared beams) until the mouse escapes to the adjacent chamber or until 10 sec has elapsed. The US and CS always co-terminate. With randomized inter-trial intervals averaging 15 sec, 30 such CS-US pairing trials are given to each mouse each day. For each trial, an escape response is registered if the mouse crosses to the other chamber after being shocked (i.e., during the 10-sec US period), and an avoidance response is registered if the mouse crosses to the other chamber during the first 5-sec CS only period. The animals are trained in such paradigm for 15-20 days, during which the average percentage of avoidance responses will improve to 60-80%. […] These trained animals are then used for compound testing using the same paradigm.
The mice were then injected with either compound or vehicle via i.p., and 20 minutes later they were tested for 30 trials in the CAR paradigm. Vehicle treatment and compound treatment were given to the same animals on alternating days, and the effect of compound in reducing avoidance response was analyzed through within-subject comparison (paired t-test). […] The mice were then given either vehicle (15 minutes prior to testing) or compound (25 minutes prior to testing) via oral gavage, and were tested for 30 trials in the CAR paradigm. Vehicle treatment and compound treatment were given to the same animals on alternating days, and the effect of compound in reducing avoidance response was analyzed through within-subject comparison (paired t-test).
The mice were then given either vehicle (15 minutes prior to testing) or compound (25 minutes prior to testing) via oral gavage, and then were tested for 30 trials in the CAR paradigm. Vehicle treatment and compound treatment were given to the same animals on alternating days, and the effect of compound in reducing avoidance response was analyzed through within-subject comparison (paired t-test).
The mice were then given either vehicle (15 minutes prior to testing) or compound (25 minutes prior to testing) via oral gavage, and were then tested for 30 trials in the CAR paradigm. Vehicle treatment and compound treatment were given to the same animals on alternating days, and the effect of compound in reducing avoidance response was analyzed through within-subject comparison (paired t-test).
The mice were then given either vehicle (15 minutes prior to testing) or compound (25 minutes prior to testing) via oral gavage, and were tested for 30 trials in the CAR paradigm.

[3] = target: T1, recombinant human PDE 10A1 (Homo sapiens, UniProt Q9Y233); test: PDE10 biochemical assay (two-step Thompson and Appleman method or SPA); details: PDE10 inhibition; read-out: IC50
T1 construct: made in house; host or cells: Sf9 insect cells, baculoviral system
T1 sequence (Q9Y233 1-779 isoform Q9Y233-1): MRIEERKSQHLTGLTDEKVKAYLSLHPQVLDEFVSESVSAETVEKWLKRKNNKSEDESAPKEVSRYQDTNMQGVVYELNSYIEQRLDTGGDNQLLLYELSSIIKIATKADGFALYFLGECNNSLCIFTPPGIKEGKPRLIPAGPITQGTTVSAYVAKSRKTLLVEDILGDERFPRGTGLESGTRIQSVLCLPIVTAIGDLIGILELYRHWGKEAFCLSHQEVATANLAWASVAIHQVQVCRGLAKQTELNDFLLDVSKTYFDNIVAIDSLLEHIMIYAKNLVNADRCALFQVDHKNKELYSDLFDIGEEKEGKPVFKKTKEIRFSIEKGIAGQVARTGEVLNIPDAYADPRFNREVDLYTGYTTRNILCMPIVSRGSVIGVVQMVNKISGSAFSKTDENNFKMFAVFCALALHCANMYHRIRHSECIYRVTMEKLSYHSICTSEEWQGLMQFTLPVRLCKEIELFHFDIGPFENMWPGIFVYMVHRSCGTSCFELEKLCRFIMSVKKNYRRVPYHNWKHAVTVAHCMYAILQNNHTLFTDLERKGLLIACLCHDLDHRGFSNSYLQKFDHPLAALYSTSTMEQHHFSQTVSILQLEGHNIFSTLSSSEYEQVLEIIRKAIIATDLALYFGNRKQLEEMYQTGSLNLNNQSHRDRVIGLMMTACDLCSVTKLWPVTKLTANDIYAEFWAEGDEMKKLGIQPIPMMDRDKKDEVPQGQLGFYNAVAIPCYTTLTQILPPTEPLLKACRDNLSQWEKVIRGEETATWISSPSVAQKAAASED
Protocol: After the appropriate incubation time, the reaction is terminated by heating. The mixture is then subjected to treatment with snake venom phosphatase. […] IC50 values can be calculated by performing the experiment at several concentrations using standard graphical means. A detailed description of the actual technique used for IC50 assays as set forth in following Examples.
The phosphodiesterase (PDE) assay was performed using recombinant human PDE 1A3, 2A3, 3 catalytic region, 4 catalytic region, 5 catalytic region, 7A, 8A, 9A2, 10A1 and 11A1 enzymes expressed in a baculoviral system using Sf9 cells. PDE activity was measured using a modification of the two-step method of Thompson and Appleman described above which was adapted for 96 well plate format. […] Reactions were initiated with enzyme and incubated with (^3H)-substrate and substance for 20 minutes at 30° C. The reaction was terminated by denaturing the enzyme (heating the reaction to 70° C. for 2 minutes). The reaction was then cooled at 4° C. for 10 minutes before the addition of snake venom (Crotalus atrox, 0.2 mg/ml) for 10 minutes at 30° C., thus allowing non-specific hydrolysis of the tritiated substrate. Separation of the remaining unhydrolysed cyclic nucleotide was achieved by a batch binding of the mixture to activated Dowex (200 μl) anion exchange resin. The anion exchange resin bound the charged nucleotides, leaving only hydrolysed (^3H) substrate in the soluble fraction. The soluble fraction (50 μl) was then added to microscint-20 (200 μl) and counted on a Top Count Plate reader. Radioactivity units were plotted against inhibitor concentration and IC50 values obtained using Graph Pad Prism software.
Alternatively, phosphodiesterase activity was measured by scintillation proximity assay (SPA) with [^3H]-cGMP as substrate. Purified PDE10 was diluted and stored in 25 mM Tris-Cl (pH 8.0)/100 mM NaCl/0.05% Tween 20/50% glycerol/3 mM DTT. Assays contained (final concentrations): 50 mM Tris-Cl (pH 7.5)/8.3 mM MgCl2/1.7 mM EGTA/0.5 mg/ml BSA/5% DMSO and 2 ng PDE10 in a final volume of 0.1 mL. Inhibition was evaluated at 8 concentrations in duplicate. Reactions were initiated by addition of enzyme and were terminated after 20 minutes at 30° C. by the addition of 50 μl of SPA beads containing Zn^++. The mixture was shaken, allowed to settle for 3 hours, and counted in a Wallac plate counter. Results (net cpm) were fitted to a four parameter logistic model using Excel Solver®.

[4] = tested on: PDE10; details: cited from earlier work
[5] = target: PDE10; details: cGMP binding to PDE10; read-out: dissociation constant (Kd); cited from earlier work

Q: For COc1cc(/C=N/NC(=O)C(OC)c2ccc(N3CCOCC3)cc2)cc(OC)c1Br (centres unmarked) [Compound 12-114], which “PCP-induced hyperactivity compared to vehicle+PCP control” value ([1]; mouse, in vivo) is on record?
A: Its value is “completely abolishes the hyperactivity”.

Q: And the “hyperactivity of mice in PCP-induced model of psychosis as compared to vehicle control” value ([1]; mouse, in vivo)?
A: The value was “significantly reduces hyperactivity”.

Q: And the “number of avoidance responses (CAR) vs vehicle” value (“number … vs vehicle” below) ([2]; 10 mg/kg oral)?
A: Its value is “significantly reduces the number of avoidance response”.

Q: What about the “conditioned avoidance response (CAR) in trained mice as compared to vehicle control” value [2] of the same compound?
A: Its value is “significantly reduces a conditioned avoidance response”.

Q: Which results are given for CCOC(C(=O)N/N=C/c1cc(OC)c(Br)c(OC)c1)c1cccc2ncccc12 (centres unmarked) [Compound 12-60]?
A: IC50 [3]: ≤ 1000 nM; PCP-induced hyperactivity compared to vehicle ([1]; 10 mg/kg i.p., ten minutes before PCP 5 mg/kg i.p.): a similar result; hyperactivity of mice in PCP-induced model of psychosis as compared to vehicle control ([1]; dose not stated): significantly reduces hyperactivity

Q: With CC(C)Cn1c(=O)n(C)c(=O)c2[nH]cnc21 [IBMX, reference compound] as the compound, how does the IC50 ([4]; read-out: IC50 (50% inhibitory concentration), inhibition of PDE10) read?
A: Its IC50 is 2600 nM.

Q: For COc1cc(/C=N/NC(=O)C(OC)c2ccc(-n3cccn3)cc2)cc(OC)c1Br (centres unmarked) [Compound 12-104], which “PCP-induced hyperactivity compared to vehicle+PCP control” value ([1]; mouse, in vivo) is on record?
A: The value was “reduces or abolishes the hyperactivity”.

Q: What about the “hyperactivity of mice in PCP-induced model of psychosis as compared to vehicle control” value ([1]; mouse, in vivo) of the same compound?
A: The value was “significantly reduces hyperactivity”.

Q: What about the “number … vs vehicle” value ([2]; 10 mg/kg oral) of the same compound?
A: The value was “significantly reduces the number of avoidance response”.

Q: What about the “number … vs vehicle” value ([2]; 30 mg/kg oral) of the same compound?
A: The value was “significantly reduces the number of avoidance response”.

Q: What about the “conditioned avoidance response (CAR) in trained mice as compared to vehicle control” value [2] of the same compound?
A: The value was “significantly reduces a conditioned avoidance response”.

Q: What does the source list for Nc1nc2c(ncn2[C@@H]2O[C@@H]3COP(=O)(O)O[C@H]3[C@H]2O)c(=O)[nH]1 [cGMP]?
A: Km ([4]; substrate hydrolysis by PDE10): 3000 nM; Kd [5]: > 9 µM

Q: With CCOC(C(=O)N/N=C/c1cc(OC)c(OC)c(OC)c1)c1cccc2ncccc12 (centres unmarked) [Compound 12-59] as the compound, how does the IC50 [3] read?
A: Its IC50 is at most 1000 nM.

Q: For COc1ccc(/C=N/NC(=O)C(OC)c2ccc3ccccc3c2)cc1OC (centres unmarked) [Compound 12-23], which IC50 [3] is on record?
A: The IC50 was at most 1000 nM.

Q: For CCOC(C(=O)N/N=C/c1cc(OC)c(OC)c(OC)c1)c1ccc2c(c1)OCCO2 (centres unmarked) [Compound 12-88], which IC50 [3] is on record?
A: Its IC50 is at most 1000 nM.

Q: With COc1cc(/C=N/NC(=O)C(OC)c2cccc3ccccc23)cc(OC)c1OC (centres unmarked) [Compound 12-13] as the compound, how does the IC50 [3] read?
A: The IC50 was at most 1000 nM.

Q: With COc1cc(/C=N/NC(=O)C(OC)c2ccccc2)cc(OC)c1OC (centres unmarked) [Compound 12-17] as the compound, how does the IC50 [3] read?
A: Its IC50 is at most 1000 nM.

Q: For COc1cc(/C=N/NC(=O)C(OC)c2ccnc3ccccc23)cc(OC)c1OC (centres unmarked) [Compound 12-56], which IC50 [3] is on record?
A: The IC50 was at most 1000 nM.

Q: For COc1cc(/C=N/NC(=O)C(OC)c2ccccc2)cc(OC)c1 (centres unmarked) [Compound 12-25], which IC50 [3] is on record?
A: Its IC50 is at most 1000 nM.

Q: With CCOC(C(=O)N/N=C/c1cc(OC)c(Br)c(OC)c1)c1ccc2c(c1)OCCO2 (centres unmarked) [Compound 12-87] as the compound, how does the IC50 [3] read?
A: Its IC50 is at most 1000 nM.
